In PubChem BioAssay (NCI):
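Interpolation was linear, between the two tested concentrations surrounding the appropriate level; five concentrations were tested over 48 hours in 96-well plates. GI50 is the concentration that inhibits growth by half. TGI: total growth inhibition.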

Columns and labels:
Assay in all cases: NCI-60 cell line screen, 48 h
BT-549 breast = system: BT-549 breast
COLO 205 colon = system: COLO 205 colon
LOX IMVI melanoma = system: LOX IMVI melanoma
NCI-H226 lung = system: NCI-H226 lung
NCI-H522 lung = system: NCI-H522 lung
OVCAR-4 ovarian = system: OVCAR-4 ovarian
PC-3 prostate = system: PC-3 prostate
SF-268 CNS = system: SF-268 CNS
SK-MEL-2 melanoma = system: SK-MEL-2 melanoma
T-47D breast = system: T-47D breast

| Compound | GI50 (BT-549 breast) | TGI (BT-549 breast) | GI50 (COLO 205 colon) | TGI (COLO 205 colon) | GI50 (LOX IMVI melanoma) | TGI (LOX IMVI melanoma) | GI50 (NCI-H226 lung) | TGI (NCI-H226 lung) | GI50 (NCI-H522 lung) | TGI (NCI-H522 lung) | GI50 (OVCAR-4 ovarian) | GI50 (PC-3 prostate) | TGI (PC-3 prostate) | GI50 (SF-268 CNS) | TGI (SF-268 CNS) | TGI (SK-MEL-2 melanoma) | GI50 (T-47D breast) | TGI (T-47D breast) | TGI (OVCAR-4 ovarian) | GI50 (SK-MEL-2 melanoma) |
| --- | --- | --- | --- | --- | --- | --- | --- | --- | --- | --- | --- | --- | --- | --- | --- | --- | --- | --- | --- | --- |
| CO/C(=C1/NC(=O)C(Cc2ccc(O)c(Br)c2)N(C)C(=O)C(C)NC(=O)CCC/C=C(\C)CCC(C)OC1=O)c1ccccc1 (stereo unspecified) | 0.0368 µM | 0.105 µM | 0.0233 µM | > 100 µM | 0.0159 µM | 0.653 µM | 0.365 µM | 3.17 µM | 0.0281 µM | 0.438 µM | 0.0225 µM | 0.036 µM | 0.595 µM | 0.0267 µM | 0.0767 µM | 0.0469 µM | 0.0354 µM | 1.34 µM |  |  |
| Nc1nc(N)c2c(n1)CCC(S(=O)(=O)c1ccc3ccccc3c1)C2 (stereo unspecified) |  | > 100 µM |  | 34.5 µM |  | > 100 µM |  | > 100 µM | 2.94 µM | 34.5 µM | 4.31 µM |  | > 100 µM |  | > 100 µM | > 100 µM |  | > 100 µM | > 100 µM | 9.79 µM |
| COc1cc(N2CCC(N)CC2)ccc1Nc1ncc(Cl)c(-c2c[nH]c3ccccc23)n1 | 1.56 µM | 3.39 µM | 0.0248 µM | 0.269 µM | 0.226 µM | 1.58 µM | 0.334 µM | 3.59 µM | 0.447 µM | 1.85 µM | 0.235 µM | 1 µM | 3.63 µM | 0.846 µM | 3.35 µM | 0.982 µM | 1.78 µM | 4.72 µM | 3.66 µM | 0.23 µM |
| COCCn1c2c([n+](Cc3cnccn3)c1C)C(=O)c1ccccc1C2=O | 0.0264 µM | 0.0876 µM | 0.0235 µM | 0.0626 µM | < 0.01 µM | < 0.0118 µM | < 0.0143 µM | 0.0293 µM | < 0.01 µM | < 0.01 µM | < 0.01 µM | < 0.01 µM | 0.0359 µM | < 0.01 µM | < 0.01 µM | 0.0127 µM | 0.0246 µM | 0.153 µM | 0.012 µM | < 0.01 µM |
| COc1cc2c(cc1[N+](=O)[O-])C(=O)C(Br)(Br)CCC2 |  | 4.97 µM |  | 3.57 µM |  | 1.97 µM |  | 10.7 µM |  | 2.37 µM |  |  | 17 µM |  | 15.6 µM | 4.8 µM |  | > 27.2 µM | 15.7 µM |  |
